# Results as given in EP1579851A2, “Rapid release encapsulated bioactive agents for inducing or potentiating an immune response and methods of use thereof” (CORIXA CORPORATION, priority 1997, dated 1999).
# System: P815 cells
# Assay: In vivo CTL induction by P815-1 formulations (anti-P1A response), 51Cr release cytotoxicity assay
# Design: species or system DBA/2 mice
# Details: 30 µg peptide or equivalent, two weeks after a single immunization; restimulated with P815-2 pulsed splenocytes; Fig. 4a
# Description: C57BL/6 mice were immunized subcutaneously with 15-30µg of soluble Ova or Ova encapsulated in microspheres (Ova/PLG). In the P1A system, DBA/2 mice were similarly immunized with P815-1 peptide alone or P815-1/PLG. PLG is defined herein as PLG1, which represents the polymeric composition of the single component system, or PLG2a-XX, which represents the polymeric composition of the blend component system. Antigens were suspended in 200 iL of PBS and injected on both flanks of the animal. As controls, mice were immunized with Ova admixed with alum as adjuvant. Fourteen to 21 days after the immunization, splenocytes were prepared as single cell suspensions and ~50'10^6 cells from each mouse were incubated with 2.5'10^6 irradiated (200,000 rad) EG7.Ova cells. […] After five days of culture, CTL activities were measured in a ^51Cr release cytotoxicity assay as described below.
# To conduct a CTL assay, target cells were incubated with ^51Cr at 100 ìCi/10^6 cells at 37°C for 60 min. […] After 4 hours of incubation at 37°C, supernatant was collected from test wells using Skatron filter strips and counted on a Packard Cobra II a counter. Specific lysis was calculated as: % specific lysis =(Experimental release - Spontaneous release)/(Maximum release - Spontaneous release)X 100 [formula] […]
sequence,measurement,value
"KKKRYSLEEILPYLGWLVFAWTTSKKK [soluble P815-1 peptide, 28 amino acid peptide, residues 28-49 of the P1A antigen with 3 lysine residues added to both termini]",CTL activity of splenocytes against P815 cells,Minimal CTL priming
